Measurements published in patent US9889123B2, “Polymorphs of deuterated omega-diphenylurea or salts thereof” (Suzhou Zelgen Biopharmaceuticals Co., Ltd., priority 2012, dated 2018).

How the values were obtained:
Assay type in all cases: physicochemical
[1] = Accelerated stability test; details: 40° C., 75% RH, 1-6 months
[2] = Solubility in solvents (description of the compound)
From the text: The compound of formula I, with a molecular formula of C21H13D3ClF3N4O3 and a molecular weight of 467.84, is a white or off-white crystal powder, odorless and tasteless.

[3] = Drug hygroscopicity test (Chinese Pharmacopoeia 2010 edition, Appendix XIX J); details: humidistatic dryer (saturated ammonium sulfate) at 25° C.±1° C. for 24 hours
Description: Take 4 dry glass weighing bottles with a top (The outer diameter was 60 mm and height was 30 mm). On the day before the test, the bottles was placed in a glass dryer (A saturated ammonium sulfate solution was placed in the lower part thereof) in a thermostatic and humidistatic chamber at 25° C.±1° C. (hereinafter, “a humidistatic dryer at 25° C.±1° C.”). The weighing bottle and its top were placed separately without the top on the bottle. Cover the glass dryer closely.
After each empty weighing bottle together with its top were placed in a humidistatic dryer at 25° C.±1° C. for 24 hours, weigh a set (the weighing bottle+its top) as a unit precisely respectively, recorded as m1. Take a sample appropriately, tile it in a glass weighing bottle weighed at a sample thickness of about 1 mm, and cover the bottle. Precisely weigh the weighing bottle with its top and the sample, recorded as m2. […] Then take off the top of the weighing bottles, and put the bottle and its top in the humidistatic dryer at 25° C.±1° C. for 24 hours.
After each sample were placed in a humidistatic dryer at 25° C.±1° C. for 24 hours, cover the weighing bottles with their tops respectively, and precisely weigh each weighing bottle with its top and the sample at this specific moment, recorded as m3. […]

CNC(=O)c1cc(Oc2ccc(NC(=O)Nc3ccc(Cl)c(C(F)(F)F)c3)cc2)ccn1.Cc1ccc(S(=O)(=O)O)cc1 [polymorph II, methanol solvate of the 1/1 p-toluenesulfonate of 4-(4-{3-[4-chloro-3-(trifluoromethyl)phenyl)-ureido]-phenoxy}-2-(N-1′,1′,1′-trideutero-methyl)pico linamide]
stability of crystal form [1]: very stable

CCO.Cc1ccc(S(=O)(=O)O)cc1.[2H]C([2H])([2H])NC(=O)c1cc(Oc2ccc(NC(=O)Nc3ccc(Cl)c(C(F)(F)F)c3)cc2)ccn1 [polymorph IV, ethanol solvate of the 1/1 p-toluenesulfonate of 4-(4-{3-[4-chloro-3-(trifluoromethyl)phenyl)-ureido]-phenoxy}-2-(N-1′,1′,1′-trideutero-methyl)pico linamide]
stability of crystal form [1]: very stable

Cc1ccc(S(=O)(=O)O)cc1.[2H]C([2H])([2H])NC(=O)c1cc(Oc2ccc(NC(=O)Nc3ccc(Cl)c(C(F)(F)F)c3)cc2)ccn1.[2H]C([2H])([2H])NC(=O)c1cc(Oc2ccc(NC(=O)Nc3ccc(Cl)c(C(F)(F)F)c3)cc2)ccn1 [polymorph V, 1/2 p-toluenesulfonate of 4-(4-{3-[4-chloro-3-(trifluoromethyl)phenyl)-ureido]-phenoxy}-2-(N-1′,1′,1′-trideutero-methyl)pico linamide]
stability of crystal form [1]: very stable

[2H]C([2H])([2H])NC(=O)c1cc(Oc2ccc(NC(=O)Nc3ccc(Cl)c(C(F)(F)F)c3)cc2)ccn1 [polymorph VI, 4-(4-{3-[4-chloro-3-(trifluoromethyl)phenyl)-ureido]-phenoxy}-2-(N-1′,1′,1′-trideutero-methyl)picolinamide]
stability of crystal form [1]: very stable

[2H]C([2H])([2H])NC(=O)c1cc(Oc2ccc(NC(=O)Nc3ccc(Cl)c(C(F)(F)F)c3)cc2)ccn1 [compound of formula I, 4-(4-{3-[4-chloro-3-(trifluoromethyl)phenyl)-ureido]-phenoxy}-2-(N-1′,1′,1′-trideutero-methyl)picolinamide]
solubility in acetone ([2]; solvent acetone): slightly soluble
solubility in anhydrous ethanol ([2]; solvent anhydrous ethanol): slightly soluble
solubility in dimethyl formamide ([2]; solvent dimethyl formamide): very soluble
solubility in dimethyl sulfoxide ([2]; solvent dimethyl sulfoxide): very soluble
solubility in glacial acetic acid ([2]; solvent glacial acetic acid): slightly soluble
solubility in methanol ([2]; solvent methanol): sparingly soluble
solubility in water ([2]; solvent water): practically insoluble

Cc1ccc(S(=O)(=O)O)cc1.[2H]C([2H])([2H])NC(=O)c1cc(Oc2ccc(NC(=O)Nc3ccc(Cl)c(C(F)(F)F)c3)cc2)ccn1 [polymorph I, 1/1 p-toluenesulfonate of 4-(4-{3-[4-chloro-3-(trifluoromethyl)phenyl)-ureido]-phenoxy}-2-(N-1′,1′,1′-trideutero-methyl)picolinamide]
stability of crystal form [1]: very stable
purity after accelerated stability test ([1]; compared to freshly prepared (0 Months)): above 99%
hygroscopicity [3]: no hygroscopicity
weight increase (%) [3]: 0%
